Data from ChEMBL document CHEMBL4387784, “Triterpenoids from Ganoderma gibbosum: A Class of Sensitizers of FLC-Resistant Candida albicans to Fluconazole” (2019).
The source made the active and inactive calls. The rule behind the calls is not given here.

Legend:
Candida albicans [1] = experiment: Antifungal activity against normal Candida albicans assessed as inhibition of microbial growth at 200 ug/mL incubated for 24 hrs by microbroth dilution assay relative to untreated control; format: functional; conditions: read-out: GI
Candida albicans [2] = experiment: Chemo-sensitization of fluconazole antifungal activity against FLC-resistant Candida albicans assessed as inhibition of microbial growth in presence of fluconazole at 1:1 ratio of compound to fluconazole incubated for 24 hrs by microbroth dilution assay relative to untreated control; format: functional
Candida albicans [3] = experiment: Chemo-sensitization of fluconazole antifungal activity against FLC-resistant Candida albicans assessed as inhibition of microbial growth at 200 ug/mL in presence of fluconazole incubated for 24 hrs by microbroth dilution assay relative to untreated control; format: functional, organism-based
Candida albicans [4] = experiment: Antifungal activity against FLC-resistant Candida albicans assessed as inhibition of microbial growth incubated for 24 hrs by microbroth dilution assay relative to untreated control; format: functional
Candida albicans [5] = experiment: Antifungal activity against FLC-resistant Candida albicans assessed as inhibition of microbial growth at 200 ug/mL incubated for 24 hrs by microbroth dilution assay relative to untreated control; format: functional; conditions: read-out: GI

Row | SMILES | inhibition of growth at 200 µg/mL (Candida albicans [1]) | MIC50 (Candida albicans [2]) | growth inhibition (GI) (Candida albicans [3]) | MIC50 (Candida albicans [4]) | inhibition of growth at 200 µg/mL (Candida albicans [5])
1 | C[C@H]1C[C@@]2(C[C@](C)(O)C3=C[C@@H](O)[C@@]4(C)C5=C(C(=O)[C@H](O2)[C@]34C)[C@@]2(C)CCC(=O)C(C)(C)[C@@H]2CC5=O)OC1=O | < 50% | 78 µg/mL | Active | – | –
2 | C/C(=C\C(=O)C[C@H](C)C(=O)O)[C@H]1C[C@H](O)[C@@]2(C)C3=C(C=C[C@]12C)[C@@]1(C)CCC(=O)C(C)(C)[C@@H]1CC3=O | < 50% | 5.1 µg/mL | Active | – | –
3 | OC(Cn1cncn1)(Cn1cncn1)c1ccc(F)cc1F [FLUCONAZOLE] | – | – | – | 6.3 µg/mL | –
4 | C[C@@H](CC(=O)C[C@](C)(O)C1=C[C@H](O)[C@]2(C)[C@]1(C)C(=O)C=C1[C@]23O[C@H]3C[C@H]2C(C)(C)C(=O)CC[C@]12C)C(=O)O | < 50% | 37.7 µg/mL | Active | – | –
5 | C/C(=C\C(=O)C[C@H](C)C(=O)O)[C@H]1C[C@@H](O)[C@@]2(C)C3=C(C(=O)[C@H](O)[C@]12C)[C@@]1(C)CCC(=O)C(C)(C)[C@@H]1CC3=O | < 50% | 4.4 µg/mL | Active | – | –
6 | C/C(=C\C(=O)C[C@H](C)C(=O)O)[C@H]1C[C@@H](O)[C@@]2(C)C3=C([C@@H](O)[C@H](O)[C@]12C)[C@@]1(C)CCC(=O)C(C)(C)[C@@H]1CC3=O | < 50% | – | Active | – | –
7 | C/C(=C\C(=O)C[C@H](C)C(=O)O)[C@H]1C[C@H](O)[C@@]2(C)[C@]34O[C@H]3C[C@H]3C(C)(C)C(=O)CC[C@]3(C)C4=CC(=O)[C@]12C | < 50% | – | Active | – | –
8 | C/C(=C\[C@H]1C[C@H](C)C(=O)O1)[C@H]1C[C@H](O)[C@]2(C)[C@]1(C)C(=O)C=C1[C@@]3(C)CCC(=O)C(C)(C)[C@@H]3C[C@H]3O[C@@]132 | < 50% | 47.9 µg/mL | Active | – | –
9 | C/C(=C\[C@@H]1C[C@H](C)C(=O)O1)[C@H]1C[C@@H](O)[C@]2(C)[C@]1(C)C(=O)C=C1[C@@]3(C)CCC(=O)C(C)(C)[C@@H]3C[C@H]3O[C@@]132 | < 50% | 37.8 µg/mL | Active | – | –
10 | C[C@@H](CC(=O)C[C@](C)(O)C1=C[C@@H](O)[C@]2(C)[C@]1(C)C(=O)C=C1[C@]23O[C@H]3C[C@H]2C(C)(C)[C@@H](O)CC[C@]12C)C(=O)O | < 50% | 8.8 µg/mL | Active | – | –
11 | C/C(=C\[C@@H]1C[C@H](C)C(=O)O1)[C@H]1C[C@H](O)[C@]2(C)[C@]1(C)C(=O)C=C1[C@@]3(C)CCC(=O)C(C)(C)[C@@H]3C[C@H]3O[C@@]132 | < 50% | 4.7 µg/mL | Active | – | –
12 | C[C@@H](CC(=O)C[C@](C)(O)C1=CC(=O)[C@]2(C)[C@]1(C)C(=O)C=C1[C@]23O[C@H]3C[C@H]2C(C)(C)[C@@H](O)CC[C@]12C)C(=O)O | < 50% | 28.3 µg/mL | Active | – | –
13 | C/C(=C\[C@H]1C[C@H](C)C(=O)O1)[C@H]1C[C@@H](O)[C@]2(C)[C@]1(C)C(=O)C=C1[C@@]3(C)CCC(=O)C(C)(C)[C@@H]3C[C@H]3O[C@@]132 | < 50% | 5 µg/mL | Active | – | –
14 | C[C@@H](CC(=O)C[C@](C)(O)C1=CC(=O)[C@]2(C)[C@]1(C)C(=O)C=C1[C@]23O[C@H]3C[C@H]2C(C)(C)C(=O)CC[C@]12C)C(=O)O | < 50% | 3.8 µg/mL | Active | – | –
15 | C=C(C)[C@@H]1C[C@H]2O[C@@]23C(=CC(=O)[C@]2(C)[C@@H](/C(C)=C/[C@H]4C[C@H](C)C(=O)O4)C[C@H](O)[C@]23C)[C@@]1(C)CCC(=O)OC | < 50% | 129 µg/mL | Active | – | –
16 | C=C(C)[C@@H]1C[C@H]2O[C@@]23C(=CC(=O)[C@]2(C)[C@@H](/C(C)=C/[C@H]4C[C@H](C)C(=O)O4)C[C@@H](O)[C@]23C)[C@@]1(C)CCC(=O)O | < 50% | 25.8 µg/mL | Active | – | –
17 | C/C(=C\C(=O)C[C@H](C)C(=O)O)[C@H]1C[C@H](O)[C@@]2(C)C3=CC[C@H]4C(C)(C)C(=O)CC[C@]4(C)C3=CC(=O)[C@]12C | < 50% | 70 µg/mL | Active | – | –
18 | C[C@@H](CC(=O)C[C@](C)(O)C1=C[C@@H](O)[C@]2(C)[C@]1(C)C(=O)C=C1[C@]23O[C@H]3C[C@H]2C(C)(C)C(=O)CC[C@]12C)C(=O)O | < 50% | 29 µg/mL | Active | – | –
19 | C/C(=C\C(=O)C[C@H](C)C(=O)O)[C@H]1C[C@@H](O)[C@@]2(C)C3=C(C=C[C@]12C)[C@@]1(C)CCC(=O)C(C)(C)[C@@H]1CC3=O | < 50% | – | Active | – | –
20 | C/C(=C\C(=O)C[C@H](C)C(=O)O)[C@H]1C[C@@H](O)[C@@]2(C)C3=C(C[C@H](O)[C@]12C)[C@@]1(C)CCC(=O)C(C)(C)[C@@H]1CC3=O | < 50% | – | Active | – | –
21 | C/C(=C\C(=O)C[C@H](C)C(=O)O)[C@H]1C[C@H](O)[C@@]2(C)[C@]34O[C@@H]3C[C@H]3C(C)(C)C(=O)CC[C@]3(C)C4=CC(=O)[C@]12C | 55% | 7.3 µg/mL | Active | – | < 50%
22 | C=C(C)[C@@H]1C[C@H]2O[C@@]23C(=CC(=O)[C@]2(C)[C@@H](/C(C)=C/[C@H]4C[C@H](C)C(=O)O4)C[C@H](O)[C@]23C)[C@@]1(C)CCC(=O)O | < 50% | 29.4 µg/mL | Active | – | –
